# Experimental data published in patent publication EP4512427A1, “ANTIBODY-DRUG CONJUGATES BASED ON MOLECULAR GLUE DEGRADERS AND USES THEREOF” (Mablink Bioscience, priority 2023, dated 2025).
# Columns and labels:
# BCRP = molecular target: T1, BCRP (Homo sapiens, UniProt Q9UNQ0); experiment: BCRP efflux substrate assay in MDCK-BCRP; format: in vitro ADME; conditions: for efflux ratio at 60 min, 5 µM / Papp A→B at 60 min, 5 µM / Papp B→A at 60 min, 5 µM: dog, pH 7.4, MDCK-BCRP; for efflux ratio at 60 min, 5 µM: read-out: Efflux ratio B/A; for Papp A→B at 60 min, 5 µM: read-out: Papp A (donor) to B (acceptor); for Papp B→A at 60 min, 5 µM: read-out: Papp B (acceptor) to A (donor); for BCRP efflux potential: in words
# T1 construct: host or cells: MDCK-BCRP (Preadyport)
# T1 sequence (Q9UNQ0 1-655): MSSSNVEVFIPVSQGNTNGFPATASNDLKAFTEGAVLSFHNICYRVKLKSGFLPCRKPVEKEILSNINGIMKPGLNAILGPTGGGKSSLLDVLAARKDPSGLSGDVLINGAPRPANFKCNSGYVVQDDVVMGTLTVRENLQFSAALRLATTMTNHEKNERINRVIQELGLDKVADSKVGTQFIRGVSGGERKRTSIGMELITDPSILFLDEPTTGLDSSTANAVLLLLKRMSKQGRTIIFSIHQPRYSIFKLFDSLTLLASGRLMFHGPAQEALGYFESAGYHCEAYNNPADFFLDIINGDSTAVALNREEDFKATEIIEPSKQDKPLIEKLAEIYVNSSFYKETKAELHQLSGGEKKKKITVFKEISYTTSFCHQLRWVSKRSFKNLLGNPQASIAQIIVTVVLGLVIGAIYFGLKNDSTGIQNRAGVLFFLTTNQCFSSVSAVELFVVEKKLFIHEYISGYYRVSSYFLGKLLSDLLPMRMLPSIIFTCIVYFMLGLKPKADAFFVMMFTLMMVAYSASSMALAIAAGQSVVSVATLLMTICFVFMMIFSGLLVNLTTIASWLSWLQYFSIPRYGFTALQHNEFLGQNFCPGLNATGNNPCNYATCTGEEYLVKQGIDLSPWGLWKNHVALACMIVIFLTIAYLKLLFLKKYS
# Procedure: (§1) MDR1 and BCRP efflux substrate assays were conducted in MDCK-MDR1 and MDCK-BCRP in vitro models (Preadyport™, Solvo Biotech) at Symeres (Nederland). Compound of the invention (donor well concentration of 5µM) were incubated in cell monolayer 24-transwell Preadyport system, using Preadyport recommended pH 7.4 assay buffer (donor and receiver wells). After 60 min of incubation (no shaking), samples are collected and suspended into triple volume of 66% cold acetonitrile. Samples are stored at -20°C until thawed, centrifuged and analyzed by LC-MS. Quinidine was used a positive control for the MDR1 assay, and prazosin was used as a positive control for the BCRP assay. Exatecan was used as a control, known not to be an MDR1 substrate. Residual DMSO content from compounds stock solutions was below 1% (v/v). The assay was performed in duplicate. The quantification of test compounds in donor or receptor compartment is conducted using relative LC/MS peak areas (samples of initial incubation solutions are used as a single point calibrator), without any spiked standard samples. The data is used for estimating apparent permeability (Papp) and calculation of efflux ratio.
# MDR1 = molecular target: T2, MDR1 (Homo sapiens, UniProt P08183); experiment: MDR1 efflux substrate assay in MDCK-MDR1; format: in vitro ADME; conditions: for efflux ratio at 60 min, 5 µM / Papp A→B at 60 min, 5 µM / Papp B→A at 60 min, 5 µM: dog; for efflux ratio at 60 min, 5 µM: MDCK-MDR1, pH 7.4, read-out: Efflux ratio B/A; for Papp A→B at 60 min, 5 µM / Papp B→A at 60 min, 5 µM: MDCK-MDR1, 5µM, pH 7.4; for Papp A→B at 60 min, 5 µM: read-out: Papp A (donor) to B (acceptor); for Papp B→A at 60 min, 5 µM: read-out: Papp B (acceptor) to A (donor); for MDR1 efflux potential: in words
# T2 construct: host or cells: MDCK-MDR1 (Preadyport)
# Procedure: as §1
# HT-29 = experiment: In vitro cytotoxicity assay (MTT); format: cell-based; conditions: Homo sapiens, 144 h, 6 days incubation
# Procedure: (§2) In vitro cytotoxicity of compounds of the disclosure was assessed on several cancerous human cell lines. Cells were plated in 96-well plates at an appropriate density depending on the cell line (between 1000 and 10 000 cells/well in 100µL of appropriate culture media) and incubated at 37°C for 24 hours. Serial dilutions of the tested compound previously dissolved in culture media (50µL) were added, and incubation was carried at 37°C out for 6 days. MTT (5mg/mL in PBS, 20µL, Sigma-Aldrich) was added into the wells, and incubation was continued for 1 to 4 hours at 37°C. Culture media was then carefully removed, and well content was homogeneously dissolved with acidified isopropanol. Absorbance values were measured on a microplate reader using a wavelength of 570 nm (with a reference wavelength of 690 nm). The IC50 concentration values compared to untreated control cells were determined using inhibition dose response curve fitting (GraphPad Prism 9). Exatecan mesylate (cat#HY-13631A) and CR8 (CAS# 294646-77-8; cat#HY-18340) were purchased from MedChemExpress (China).
# BXPC3 = experiment: In vitro cytotoxicity assay (MTT); format: cell-based; conditions: Homo sapiens, BXPC-3, 144 h, 6 days incubation
# Procedure: as §2
# MCF-7 = experiment: In vitro cytotoxicity assay (MTT); format: cell-based; conditions: Homo sapiens, MCF7, 144 h, 6 days incubation
# Procedure: as §2
# MDA-MB-453 = experiment: In vitro cytotoxicity assay (MTT); format: cell-based, human; conditions: Homo sapiens, MDA-MB-453, 144 h, 6 days incubation
# Procedure: as §2
# NCI-N87 = experiment: In vitro cytotoxicity assay (MTT); format: cell-based, human; conditions: Homo sapiens, NCI-N87, 144 h, 6 days incubation
# Procedure: as §2
# BT-474 = experiment: In vitro cytotoxicity assay (MTT); format: cell-based, human; conditions: Homo sapiens, BT-474, 144 h, BT-474; 6 days incubation, MTT
# Procedure: as §2
# MDA-MB-231 = experiment: In vitro cytotoxicity assay (MTT); format: cell-based, human; conditions: Homo sapiens, MDA-MB-231, 144 h, 6 days incubation
# Procedure: as §2
# JIMT-1 = experiment: In vitro cytotoxicity assay (MTT); format: cell-based, human; conditions: Homo sapiens, 144 h, 6 days incubation
# Procedure: as §2
# SKBR-3 = experiment: In vitro cytotoxicity assay (MTT); format: cell-based, human; conditions: Homo sapiens, SK-BR-3, 144 h, 6 days incubation
# Procedure: as §2
# in vitro = conditions: PAMPA, pH 7.4
# KB-1 = experiment: In vitro cytotoxicity assay (MTT); format: cell-based; conditions: Homo sapiens, KB16, 144 h, 6 days incubation
# Procedure: as §2
# T2 sequence (P08183 whole entry): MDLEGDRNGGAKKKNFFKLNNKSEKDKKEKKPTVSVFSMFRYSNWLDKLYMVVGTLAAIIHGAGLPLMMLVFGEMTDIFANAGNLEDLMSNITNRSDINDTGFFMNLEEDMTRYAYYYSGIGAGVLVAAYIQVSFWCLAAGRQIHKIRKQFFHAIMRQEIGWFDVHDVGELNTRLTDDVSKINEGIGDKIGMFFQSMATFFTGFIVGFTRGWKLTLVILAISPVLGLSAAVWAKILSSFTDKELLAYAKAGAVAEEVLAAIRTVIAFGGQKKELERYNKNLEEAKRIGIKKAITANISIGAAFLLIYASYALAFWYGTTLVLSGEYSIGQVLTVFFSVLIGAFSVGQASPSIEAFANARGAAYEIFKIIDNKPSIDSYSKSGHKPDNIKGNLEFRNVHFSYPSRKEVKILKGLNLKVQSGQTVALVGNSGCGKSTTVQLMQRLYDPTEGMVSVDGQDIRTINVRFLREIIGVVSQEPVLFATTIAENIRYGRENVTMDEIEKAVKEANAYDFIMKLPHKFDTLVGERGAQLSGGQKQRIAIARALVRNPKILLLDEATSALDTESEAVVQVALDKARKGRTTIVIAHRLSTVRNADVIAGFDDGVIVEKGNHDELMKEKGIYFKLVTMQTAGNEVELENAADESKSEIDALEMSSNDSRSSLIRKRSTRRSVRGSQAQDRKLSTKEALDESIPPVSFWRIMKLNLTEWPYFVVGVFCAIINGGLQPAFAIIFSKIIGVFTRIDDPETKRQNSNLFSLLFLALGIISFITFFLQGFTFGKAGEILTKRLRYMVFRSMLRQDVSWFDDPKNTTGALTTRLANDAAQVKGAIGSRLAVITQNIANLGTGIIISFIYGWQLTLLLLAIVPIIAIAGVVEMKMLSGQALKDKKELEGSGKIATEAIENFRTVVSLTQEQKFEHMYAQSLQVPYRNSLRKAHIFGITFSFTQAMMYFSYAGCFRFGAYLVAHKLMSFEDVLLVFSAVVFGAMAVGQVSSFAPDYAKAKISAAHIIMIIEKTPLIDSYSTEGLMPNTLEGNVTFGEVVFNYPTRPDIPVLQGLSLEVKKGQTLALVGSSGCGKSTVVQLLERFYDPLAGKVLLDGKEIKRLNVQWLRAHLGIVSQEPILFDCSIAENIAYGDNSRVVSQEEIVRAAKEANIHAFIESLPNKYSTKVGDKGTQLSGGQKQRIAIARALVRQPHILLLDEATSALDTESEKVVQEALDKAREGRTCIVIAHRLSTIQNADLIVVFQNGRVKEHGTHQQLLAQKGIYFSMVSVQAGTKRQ
SMILES,"efflux ratio at 60 min, 5 µM (BCRP)","Papp A→B at 60 min, 5 µM (BCRP) [×10⁻⁶ cm/s]","Papp B→A at 60 min, 5 µM (BCRP) [×10⁻⁶ cm/s]","efflux ratio at 60 min, 5 µM (MDR1)","Papp A→B at 60 min, 5 µM (MDR1) [×10⁻⁶ cm/s]","Papp B→A at 60 min, 5 µM (MDR1) [×10⁻⁶ cm/s]",IC50 (HT-29) [nM],IC50 (BXPC3) [nM],IC50 (MCF-7) [nM],IC50 (MDA-MB-453) [nM],IC50 (NCI-N87) [nM],IC50 (BT-474) [nM],IC50 (MDA-MB-231) [nM],IC50 (JIMT-1) [nM],IC50 (SKBR-3) [nM],"Papp at 5 h, 50 µM (in vitro) [×10⁻⁶ cm/s]",BCRP efflux potential (BCRP),MDR1 efflux potential (MDR1),IC50 (KB-1) [nM]
Brc1cnn2c(NCc3ccc(-c4ccccn4)cc3)nc(NC[C@@H]3CCCN3)nc12 [Compound 2571],12.9,7.09,91.4,108,0.59,64.2,1.12,5.43,79.6,3.55,4.27,2.68,2.22,1.53,7.75,149,–,–,–
NCCCCNc1nc(NCc2ccc(-c3ccccn3)cc2)n2ncc(Br)c2n1 [Compound 2585],27.9,1.75,49,–,< 3.4,34,–,–,–,26.8,15.4,1.77,24.7,7.86,38.9,< 0.3,–,–,–
N[C@H]1CCC[C@@H](Nc2nc(NCc3ccc(-c4ccccn4)cc3)n3ncc(Br)c3n2)C1 [Compound 2670],5.93,5.02,29.8,–,< 0.5,23.5,–,–,–,9.19,2.53,5.77,2.67,–,0.72,132,–,–,–
N[C@H]1CCN(c2nc(NCc3ccc(-c4ccccn4)cc3)n3ncc(Br)c3n2)C1 [Compound 2655],3.47,11.1,38.7,5.25,5.13,26.9,–,–,–,0.97,1.95,1.57,0.54,–,0.14,125,low level,low level,1.66
CNCCN(C)c1nc(NCc2ccc(-c3ccccn3)cc2)n2ncc(Br)c2n1 [Compound 2605],1.31,30.9,40.5,13.4,4.05,54.5,0.33,2.91,3.7,3.66,4.5,2.76,1.54,1.22,7.46,112,low level,low level,–
NCC1CCN(c2nc(NCc3ccc(-c4ccccn4)cc3)n3ncc(Br)c3n2)CC1 [Compound 2560],4.94,7.53,37.2,–,< 0.7,26.6,–,–,–,1.61,3.29,5.92,1.92,0.6,4.33,135,–,–,–
N[C@H]1CCC[C@@H]1Nc1nc(NCc2ccc(-c3ccccn3)cc2)n2ncc(Br)c2n1 [Compound 2668],6.99,10.2,71,41.6,1.36,56.4,–,–,–,1.78,0.84,2.16,0.82,–,0.2,164,–,–,2.99
"CC[C@@]1(O)C(=O)OCc2c1cc1n(c2=O)Cc2c-1nc1cc(F)c(C)c3c1c2[C@@H](N)CC3 [Exatecan, reference compound]",12.3,1.43,17.6,7.31,2.28,16.7,–,–,–,–,–,–,–,–,–,58,–,–,–
Brc1cnn2c(NCc3ccc(-c4ccccn4)cc3)nc(N3CCC(N4CCNCC4)CC3)nc12 [Compound 2622],–,–,–,–,–,–,8.25,36.1,> 100,21.1,3,13.5,12.7,4.84,2.24,–,–,–,–
